Active and inactive are the calls of the source.
Legend:
Type in all cases: functional
Vero = Vero cell cytotoxicity, cytotoxicity control for flavivirus capping enzyme inhibitors (AID 588742); conditions: Chlorocebus sabaeus
Hexokinase HKDC1 = biological target: T1, Hexokinase HKDC1 (Homo sapiens, UniProt Q2TB90); assay: HKDC1 hexokinase inhibitors, dose response, biochemical, W721R variant (AID 504729)
T1 sequence (Q2TB90 whole entry): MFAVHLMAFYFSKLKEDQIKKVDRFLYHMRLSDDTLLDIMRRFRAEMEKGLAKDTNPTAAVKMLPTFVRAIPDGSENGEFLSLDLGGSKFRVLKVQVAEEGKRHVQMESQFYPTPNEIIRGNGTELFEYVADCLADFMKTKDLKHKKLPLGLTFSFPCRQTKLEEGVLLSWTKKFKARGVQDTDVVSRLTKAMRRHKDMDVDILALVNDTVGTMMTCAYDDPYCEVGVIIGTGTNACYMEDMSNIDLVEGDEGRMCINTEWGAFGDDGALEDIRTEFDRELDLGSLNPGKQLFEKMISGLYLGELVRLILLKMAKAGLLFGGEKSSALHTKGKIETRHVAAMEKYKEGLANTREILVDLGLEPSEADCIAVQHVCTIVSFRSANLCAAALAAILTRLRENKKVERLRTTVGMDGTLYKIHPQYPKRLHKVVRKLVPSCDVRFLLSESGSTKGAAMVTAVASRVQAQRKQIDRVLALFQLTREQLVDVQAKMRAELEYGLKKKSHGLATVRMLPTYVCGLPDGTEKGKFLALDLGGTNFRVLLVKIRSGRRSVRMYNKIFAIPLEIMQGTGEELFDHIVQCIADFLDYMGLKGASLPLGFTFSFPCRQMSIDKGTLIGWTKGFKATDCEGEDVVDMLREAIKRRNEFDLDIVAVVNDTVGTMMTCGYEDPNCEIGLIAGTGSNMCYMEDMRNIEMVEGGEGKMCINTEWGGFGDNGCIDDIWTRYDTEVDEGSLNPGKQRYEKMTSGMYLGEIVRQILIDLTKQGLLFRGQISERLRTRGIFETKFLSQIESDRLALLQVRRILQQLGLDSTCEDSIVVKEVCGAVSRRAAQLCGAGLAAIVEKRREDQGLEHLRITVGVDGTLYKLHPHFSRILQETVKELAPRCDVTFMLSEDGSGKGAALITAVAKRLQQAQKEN

[1] = biological target: Induced myeloid leukemia cell differentiation protein Mcl-1 (Homo sapiens, UniProt Q07820)
Genome polyprotein = Genome polyprotein (dengue virus type 2, UniProt P29990); assay: Dengue-2 NS5 methyltransferase inhibitors, primary screen, biochemical, confirmation dose response (AID 588689)
[2] = THP-1 cell cytotoxicity, dose response, cytotoxicity control for Vif-APOBEC3G degradation inhibitor project, THP-1 cells (AID 1117359); conditions: Human immunodeficiency virus 1, THP-1
Caspase-3 = biological target: T2, Caspase-3 (Homo sapiens, UniProt P42574); assay: caspase-3 inhibitors as off-family protease, SAR follow-up, selectivity assay for SENP protease inhibitor project, biochemical, luminescence, set 2 (AID 588599)
T2 sequence (P42574 whole entry): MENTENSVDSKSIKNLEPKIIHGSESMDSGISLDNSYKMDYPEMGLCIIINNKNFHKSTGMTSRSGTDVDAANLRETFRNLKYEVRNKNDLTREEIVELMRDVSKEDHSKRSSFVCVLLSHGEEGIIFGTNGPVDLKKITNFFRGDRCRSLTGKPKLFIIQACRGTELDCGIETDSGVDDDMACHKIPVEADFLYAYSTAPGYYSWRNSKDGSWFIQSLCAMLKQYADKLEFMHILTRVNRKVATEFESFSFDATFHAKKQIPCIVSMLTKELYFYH

[3] = biological target: T3, Sentrin-specific protease 8 (Homo sapiens, UniProt Q96LD8); assay: SENP8 protease inhibitors, SAR follow-up, biochemical, luminescence, set 2 (AID 588601)
T3 sequence (Q96LD8 whole entry): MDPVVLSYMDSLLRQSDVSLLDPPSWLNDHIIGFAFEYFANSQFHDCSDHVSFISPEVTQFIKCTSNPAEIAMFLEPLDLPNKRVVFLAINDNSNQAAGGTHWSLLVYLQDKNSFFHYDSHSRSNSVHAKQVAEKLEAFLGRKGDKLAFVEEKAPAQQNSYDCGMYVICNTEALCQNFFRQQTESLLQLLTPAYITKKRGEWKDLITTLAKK

[4] = biological target: T4, Sentrin-specific protease 6 (Homo sapiens, UniProt Q9GZR1); assay: SENP6 protease inhibitors, SAR follow-up, biochemical, luminescence, set 2 (AID 588598)
T4 sequence (Q9GZR1 whole entry): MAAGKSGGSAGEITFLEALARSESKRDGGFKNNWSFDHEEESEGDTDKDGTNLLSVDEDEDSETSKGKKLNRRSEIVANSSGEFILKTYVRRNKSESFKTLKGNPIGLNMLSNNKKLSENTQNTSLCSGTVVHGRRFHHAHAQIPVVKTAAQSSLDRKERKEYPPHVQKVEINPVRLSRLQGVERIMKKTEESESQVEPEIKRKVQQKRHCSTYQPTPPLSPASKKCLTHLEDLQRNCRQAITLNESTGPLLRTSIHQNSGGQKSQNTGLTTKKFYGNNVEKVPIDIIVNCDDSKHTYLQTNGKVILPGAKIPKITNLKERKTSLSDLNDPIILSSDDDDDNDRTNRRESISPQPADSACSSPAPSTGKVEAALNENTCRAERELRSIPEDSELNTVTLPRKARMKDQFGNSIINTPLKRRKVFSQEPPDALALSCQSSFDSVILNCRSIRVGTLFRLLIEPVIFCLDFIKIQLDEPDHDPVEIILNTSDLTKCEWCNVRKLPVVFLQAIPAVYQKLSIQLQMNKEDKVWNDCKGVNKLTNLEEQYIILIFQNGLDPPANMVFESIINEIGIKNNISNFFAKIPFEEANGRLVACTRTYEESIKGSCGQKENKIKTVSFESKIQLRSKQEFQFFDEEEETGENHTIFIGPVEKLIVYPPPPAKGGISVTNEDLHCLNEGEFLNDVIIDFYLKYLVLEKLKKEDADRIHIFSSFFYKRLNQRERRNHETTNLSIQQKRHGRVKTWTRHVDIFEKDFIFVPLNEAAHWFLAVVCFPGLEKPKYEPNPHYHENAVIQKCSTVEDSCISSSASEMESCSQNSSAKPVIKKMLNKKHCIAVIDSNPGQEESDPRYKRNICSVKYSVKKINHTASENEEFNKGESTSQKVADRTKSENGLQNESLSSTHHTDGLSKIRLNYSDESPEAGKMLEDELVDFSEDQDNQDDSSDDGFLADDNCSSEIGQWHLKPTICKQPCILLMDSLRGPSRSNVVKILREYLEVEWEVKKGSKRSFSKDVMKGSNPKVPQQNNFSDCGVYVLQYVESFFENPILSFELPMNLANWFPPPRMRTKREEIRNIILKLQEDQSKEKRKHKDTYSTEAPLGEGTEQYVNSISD

[5] = biological target: T5, Sentrin-specific protease 7 (Homo sapiens, UniProt Q9BQF6); assay: SENP7 protease inhibitors, SAR follow-up, biochemical, luminescence, set 2 (AID 588600)
T5 sequence (Q9BQF6 whole entry): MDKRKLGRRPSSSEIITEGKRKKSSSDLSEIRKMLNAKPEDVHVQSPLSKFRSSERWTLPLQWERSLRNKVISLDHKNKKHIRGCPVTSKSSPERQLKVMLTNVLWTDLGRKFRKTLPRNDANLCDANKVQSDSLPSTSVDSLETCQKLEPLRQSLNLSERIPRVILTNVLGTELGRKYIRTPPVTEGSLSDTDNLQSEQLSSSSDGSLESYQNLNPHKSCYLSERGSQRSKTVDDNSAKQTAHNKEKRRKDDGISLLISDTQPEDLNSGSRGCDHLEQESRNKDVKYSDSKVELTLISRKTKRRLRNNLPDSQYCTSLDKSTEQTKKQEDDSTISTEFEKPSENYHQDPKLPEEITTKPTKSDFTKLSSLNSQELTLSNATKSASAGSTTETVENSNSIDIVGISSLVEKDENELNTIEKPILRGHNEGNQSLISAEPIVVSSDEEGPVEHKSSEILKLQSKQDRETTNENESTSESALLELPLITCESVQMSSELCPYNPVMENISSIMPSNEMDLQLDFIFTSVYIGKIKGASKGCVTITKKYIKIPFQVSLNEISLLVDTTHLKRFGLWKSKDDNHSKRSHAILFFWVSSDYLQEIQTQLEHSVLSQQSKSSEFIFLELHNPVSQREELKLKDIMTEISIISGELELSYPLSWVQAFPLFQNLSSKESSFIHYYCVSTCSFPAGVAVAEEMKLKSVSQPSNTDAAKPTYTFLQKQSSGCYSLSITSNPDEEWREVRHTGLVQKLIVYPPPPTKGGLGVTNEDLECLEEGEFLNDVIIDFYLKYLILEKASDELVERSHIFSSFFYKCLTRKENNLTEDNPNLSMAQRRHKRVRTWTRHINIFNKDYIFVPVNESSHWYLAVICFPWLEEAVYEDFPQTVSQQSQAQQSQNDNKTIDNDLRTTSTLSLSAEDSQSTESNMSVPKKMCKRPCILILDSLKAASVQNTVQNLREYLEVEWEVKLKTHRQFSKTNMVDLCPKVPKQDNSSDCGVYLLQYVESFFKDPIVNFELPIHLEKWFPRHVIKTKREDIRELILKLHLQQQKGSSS

[6] = biological target: T6, Rac GTPase-activating protein 1 (Homo sapiens, UniProt Q9H0H5); assay: MgcRacGAP GTPase-activating activity inhibitors, confirmation, biochemical, ADP Hunter fluorescence, primary and confirmatory (AID 624330)
T6 sequence (Q9H0H5 whole entry): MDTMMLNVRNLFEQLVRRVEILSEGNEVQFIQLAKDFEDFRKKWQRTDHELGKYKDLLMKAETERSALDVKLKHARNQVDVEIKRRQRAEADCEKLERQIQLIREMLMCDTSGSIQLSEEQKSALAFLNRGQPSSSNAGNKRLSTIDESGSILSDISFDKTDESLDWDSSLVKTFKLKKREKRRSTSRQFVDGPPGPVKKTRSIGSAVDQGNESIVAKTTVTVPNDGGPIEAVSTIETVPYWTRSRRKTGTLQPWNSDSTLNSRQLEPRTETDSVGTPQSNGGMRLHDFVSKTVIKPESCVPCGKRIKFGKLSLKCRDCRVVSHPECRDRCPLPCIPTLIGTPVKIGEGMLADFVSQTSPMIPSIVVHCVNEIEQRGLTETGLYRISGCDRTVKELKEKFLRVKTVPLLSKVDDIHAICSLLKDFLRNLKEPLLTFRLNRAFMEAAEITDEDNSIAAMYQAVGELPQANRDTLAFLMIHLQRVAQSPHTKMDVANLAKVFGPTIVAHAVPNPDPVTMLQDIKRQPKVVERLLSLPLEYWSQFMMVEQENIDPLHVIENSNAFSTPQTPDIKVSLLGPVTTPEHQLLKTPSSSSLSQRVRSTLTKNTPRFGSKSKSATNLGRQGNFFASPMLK

Genome polyprotein, sequence (P29990 2492-3391 limits assumed): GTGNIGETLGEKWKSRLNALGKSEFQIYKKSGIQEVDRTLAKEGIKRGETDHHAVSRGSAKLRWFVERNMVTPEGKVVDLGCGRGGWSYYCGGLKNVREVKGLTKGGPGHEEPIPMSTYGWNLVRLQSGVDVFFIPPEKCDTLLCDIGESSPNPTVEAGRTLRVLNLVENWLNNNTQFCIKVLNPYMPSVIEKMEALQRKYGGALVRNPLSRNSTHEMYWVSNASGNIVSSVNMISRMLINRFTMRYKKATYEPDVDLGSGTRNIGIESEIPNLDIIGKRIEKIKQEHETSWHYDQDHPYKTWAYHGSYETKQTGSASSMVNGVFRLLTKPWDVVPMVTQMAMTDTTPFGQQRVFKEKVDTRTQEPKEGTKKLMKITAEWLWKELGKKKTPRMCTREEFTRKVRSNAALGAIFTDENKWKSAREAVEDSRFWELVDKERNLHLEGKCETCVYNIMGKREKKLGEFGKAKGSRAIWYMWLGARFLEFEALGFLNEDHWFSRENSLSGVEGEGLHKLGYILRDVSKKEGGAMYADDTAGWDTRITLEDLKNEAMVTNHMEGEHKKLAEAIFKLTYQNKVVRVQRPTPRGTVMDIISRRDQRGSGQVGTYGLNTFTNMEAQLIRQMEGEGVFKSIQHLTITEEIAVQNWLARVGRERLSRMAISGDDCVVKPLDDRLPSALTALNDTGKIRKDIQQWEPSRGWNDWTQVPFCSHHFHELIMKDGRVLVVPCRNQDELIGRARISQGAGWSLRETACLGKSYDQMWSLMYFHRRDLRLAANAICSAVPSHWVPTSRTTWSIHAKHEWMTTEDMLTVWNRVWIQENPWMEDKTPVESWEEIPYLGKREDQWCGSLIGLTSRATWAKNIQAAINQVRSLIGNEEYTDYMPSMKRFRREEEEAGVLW
Induced myeloid leukemia cell differentiation protein Mcl-1, sequence (Q07820 whole entry): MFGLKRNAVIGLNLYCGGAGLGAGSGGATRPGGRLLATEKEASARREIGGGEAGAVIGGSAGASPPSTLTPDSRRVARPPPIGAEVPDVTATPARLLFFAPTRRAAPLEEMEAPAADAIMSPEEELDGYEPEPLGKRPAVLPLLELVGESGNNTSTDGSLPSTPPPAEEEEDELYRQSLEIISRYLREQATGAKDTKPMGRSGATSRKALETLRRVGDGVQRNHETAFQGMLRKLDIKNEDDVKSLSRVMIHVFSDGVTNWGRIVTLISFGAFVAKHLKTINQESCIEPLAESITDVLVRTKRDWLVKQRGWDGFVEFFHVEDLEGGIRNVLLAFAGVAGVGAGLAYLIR

Row | IC50 (Caspase-3) | IC50 [4] | IC50 [5] | IC50 [6] | Structure (SMILES) | CC50 (Vero) | IC50 (Hexokinase HKDC1) | IC50 [1] | IC50 (Genome polyprotein) | CC50 [2] | IC50 [3]
1 | – | – | – | – | COc1ccc2[nH]c3c4c(ccc3c2c1)C(=O)C=CC4=O | 17.9 µM (active) | 19.1 µM (active) | 0.919 µM (active) | > 100 µM (active) | 3.94 µM (active) | –
2 | > 99 µM (inactive) | > 99 µM (inactive) | > 99 µM (inactive) | – | CCCC(=O)Nc1ccc(C(=O)N/N=C/c2c(C)[nH]c3ccccc23)cc1 | – | – | – | – | – | > 99 µM (inactive)
3 | > 99 µM (inactive) | > 99 µM (inactive) | > 99 µM (inactive) | – | Cc1ccccc1NC(=O)CCC(=O)N/N=C/c1c[nH]c2ccccc12 | – | – | – | – | – | > 99 µM (inactive)
4 | > 99 µM (inactive) | > 99 µM (inactive) | > 99 µM (inactive) | – | COCc1c(Br)c(C)nc(OCC(=O)N/N=C/c2c[nH]c3ccccc23)c1C#N | – | – | – | – | – | > 99 µM (inactive)
5 | – | – | – | 30.2 µM (active) | Cc1cc(O)ccc1/N=C/c1c(C(F)(F)F)n[nH]c1O | > 40 µM (active) | – | – | – | – | –

Reference: ChEMBL document CHEMBL1201862, “PubChem BioAssay data set” (2004)
